{"source": "patent US20190049429A1", "about": "“METHOD FOR OBSERVING DYNAMICS OF SWEAT GLANDS” (MANDOM CORPORATION, priority 2016, published 2019)", "assay_type_in_all_cases": "cell-based, human", "key": {"[1]": {"test_system": "isolated whole sweat glands", "assay": "Evaluation of test substance for perspiration-controlling action: moving distance of cells in whole sweat glands stimulated with pilocarpine", "details": "atropine pre-incubated 30 minutes, pilocarpine 10 mM after 10 minutes", "description": "Whole sweat glands were observed by time-lapse imaging in the same manner as in Example 1 except that Krebs-Ringer solution was used in place of PBS, that atropine as a test substance was added onto the whole sweat glands before observing the whole sweat glands by using time-lapse imaging and thereafter the whole sweat glands were incubated for 30 minutes, and that pilocarpine was added onto the whole sweat glands so as to have a concentration of 10 mM after 10 minutes passed from the initiation of the observation (Experiment No. 1). Next, cells E, F, G, H and I were selected from the image of FIG. 21, and a moving distance of each cell was examined in the same manner as in Example 1. Next, the average value of moving distances of cells was obtained by using the moving distance of each cell. The scale bar in FIG. 21 means 50 μm.\nIn addition, whole sweat glands were observed by time-lapse imaging in the same manner as in Example 1 except that Krebs-Ringer's solution was used in place of PBS and that pilocarpine was added onto the whole sweat glands so as to have a concentration of 10 mM after 10 minutes passed from the initiation of the observation (Experiment No. 2). Next, cells J, K, L, M and N were selected from the image of FIG. 22, and a moving distance of each cell was examined in the same manner as in Example 1. […]"}, "[2]": {"test_system": "isolated whole sweat glands", "assay": "Time-lapse imaging of whole sweat glands in Krebs-Ringer solution: outer and inner diameter index values of sweat gland tubule after stimulant", "details": "pilocarpine 10 mM added after 10 minutes", "description": "Whole sweat glands were observed by time-lapse imaging in the same manner as in Example 1 except that Krebs-Ringer solution (composition: 125 mM sodium chloride, 5 mM potassium chloride, 1 mM calcium chloride, 1. 2 mM magnesium chloride, 25 mM sodium bicarbonate, 1.2 mM dihydrogen phosphate sodium, 5 mM glucose and 10 mg/100 mL of fatty acid-free bovine serum albumin, pH 7.48) was used in place of PBS. After 10 minutes passed from the initiation of the observation, pilocarpine which was a sweat gland contraction-inducing reagent (stimulant) was added to the whole sweat glands so as to have a concentration of 10 mM, and thereafter the observation of the whole sweat glands using the time-lapse imaging was continued. Next, changes of each outer diameter index values at the determined sites (A) to (C) shown in FIG. 17 with the passage of time were obtained by using the image analysis software (manufactured by BITPLANE, trade name: Imaris). The outer diameter index value was obtained by stacking data in the Z direction and performing calculation in which the image analysis software was used in the “Surface” mode under the following setting conditions: In FIG. 17, the determined site (A) is a portion enveloped by myoepithelial cells. The determined site (B) and the determined site (C) are portions which are not enveloped by myoepithelial cells, and which are flow pathways for sweat. Further, the scale bar in FIG. 17 means 50 μm. After cancelling the stacking of the data in the Z direction, changes of an inner diameter index value at the determined sites (A) to (C) shown in FIG. 18 were calculated with one kind of data in the Z direction. The internal diameter index value was obtained by preparing the surface model, then extracting the components included in the surface model with Mask tool included in an image analysis software and performing calculation with the image analysis software under the following setting conditions: […]"}, "[3]": {"test_system": "isolated whole sweat glands", "assay": "Time-lapse imaging of stained isolated whole sweat glands held with collagen in PBS: moving distance of cells after stimulant", "details": "pilocarpine 10 mM added 60 seconds after initiation of observation, when 150 to 300 seconds passed from initiation, FIG. 5", "description": "As skin tissues, skin tissues which were refrigerated immediately after removal from living donors and stored at 4° C. for 15 hours were used. The skin tissues were immersed in a phosphate-buffered saline containing 10 μM Neutral Red, to incorporate Neutral Red into sweat glands included in the skin tissues. Next, the dermis of each of the skin tissues was finely cut to obtain dermal segments. Whole sweat glands were collected from the dermal segments by using tweezers under an optical microscope. […]\nAfter 5 minutes passed from the addition of the buffer, the observation with the time-lapse imaging of the whole sweat glands on the glass bottom dish was started by using a confocal laser scanning microscope for biological use (inverted microscope (manufactured by Olympus Corporation, trade name: IX-83) equipped with FV 1200 manufactured by Olympus Corporation)). At that time, the whole sweat glands were visualized by detecting fluorescence derived from the nuclear staining reagent bound to the nucleus and fluorescence derived from the cytoskeleton-staining reagent bound to the cytoskeleton. […]\nwherein n is the same as mentioned above. […] The actual moving distance (μm) of the cell was calculated by multiplying the movement value by the size per coordinate 1."}, "[4]": {"details": "site not enveloped by myoepithelial cells, FIG. 19"}, "[5]": {"details": "site not enveloped by myoepithelial cells, FIG. 20"}}}
{"smiles": "CN1[C@@H]2CC[C@H]1C[C@@H](OC(=O)C(CO)c1ccccc1)C2", "note": "(stereo partly drawn) [atropine]", "values": [{"measurement": "perspiration-controlling action judged from sweat gland dynamics", "setting": "[1]", "result": "has an antiperspirant action"}, {"measurement": "changes of a moving distance of each cell included in the sweat glands with the passage of time, compared with sweat glands not contacted with atropine", "setting": "[1]; Krebs-Ringer solution, FIG. 23 vs FIG. 24", "result": "smaller"}]}
{"smiles": "CC[C@@H]1C(=O)OC[C@@H]1Cc1cncn1C", "note": "[pilocarpine]", "values": [{"measurement": "outer diameter index value at the determined site (A)", "setting": "[2]; site enveloped by myoepithelial cells, FIG. 19", "result": "decreases after stimulating with the stimulant and then increases"}, {"measurement": "inner diameter index value at the determined site (A)", "setting": "[2]; site enveloped by myoepithelial cells, FIG. 20", "result": "greatly decreases after stimulating with the stimulant and then increases"}, {"measurement": "outer diameter index value at the determined site (B)", "setting": "[2]; [4]", "result": "increases after stimulating with the stimulant"}, {"measurement": "outer diameter index value at the determined site (C)", "setting": "[2]; [4]", "result": "hardly changes after stimulating with the stimulant"}, {"measurement": "diameter index value at the determined site (B), results of FIG. 20", "setting": "[2]; [5]", "result": "hardly changes immediately after stimulating with the stimulant, but the outer diameter index value increases when passing a certain time"}, {"measurement": "diameter index value at the determined site (C), results of FIG. 20", "setting": "[2]; [5]", "result": "hardly changes immediately after stimulating with the stimulant, but the outer diameter index value increases when passing a certain time"}, {"measurement": "moving distances of the cell A, the cell B, the cell C, and the cell D", "setting": "[3]", "result": "become larger"}]}
